{
  "source": "patent US20140030304A1",
  "about": "“Process for the Treatment of Synthetic Textiles with Cationic Biocides” (priority 2011, published 2014)",
  "tested_on": "Escherichia coli",
  "experiment": "Quick-kill test (AATCC-100) on treated PP textile, Escherichia coli",
  "type": "cell-based",
  "note": "Read-outs that look alike come from different tables or passages of the source.",
  "data": [
    {"molecule": "polyhexamethylenbiguanid [PHMB]", "values": [
      {"measurement": "log-reduction / killing, E. coli", "result": "showed killing"}
    ]},
    {"molecule": "CCCCCCCCCCCCCCCC[N+](C)(C)C.[Cl-]", "note": "[CTAC, cetyltrimethylammonium chloride]", "values": [
      {"measurement": "log-reduction / killing, E. coli", "setting": "textile spray-treated with aqueous solution of unformulated biocide (2-3% w), 5 min, positive control", "result": 1.5, "unit": "log"},
      {"measurement": "biocide activity against E. coli", "setting": "textile spray-treated with aqueous solution of unformulated biocide (2-3% w), after 2 h", "result": "very effective"}
    ]}
  ]
}
